Laboratory results published in patent US20040242639A1, “Phospholipase C inhibitors for use in treating inflammatory disorders” (priority 2003, published 2004).
pIC50: −log10 of the molar value.

Biological target: T1, human PLC-β2 (Homo sapiens, UniProt Q00722)
T1 construct: made in house; host or cells: Sf9 cells (Spodoptera frugiperda), recombinant baculovirus
Experiment: PLC assay using FlashPlates (immobilized [3H]PIP2 hydrolysis)
Format: biochemical
Conditions: for pIC50: 96-well Phospholipid FlashPlates coated with [3H]PIP2, purified recombinant human PLC-β2 or cytosolic human PLC-β2; for inhibition at 10 µM: read-out: %
Excerpt: The hydrolysis of phosphatidylinositol-4,5-bisphosphate (PIP2) by a specific phospholipase C-β2 (PLC-β2) produces two intracellular messengers, diacylglycerol (DAG) and inositol 1,4,5-trisphosphate ([…]), which mediate the activation of protein kinase C and intracellular Ca^2+ release. A conventional organic solvent extraction method is widely used for PLC assays to isolate IP3 from the substrate […]. The conventional PLC-β2 assay, however is terminated by addition of acidified organic solvents and subsequent extraction and phase separation. […] Accordingly, a preferred method to test the compounds of the present invention, was developed utilizing a 96-well plate assay for PLC-β2 using immobilized radiolabeled substrate to quantitatively measure the reduction in the substrate level without a need for organic solvent extraction. The automated PLC-β2 assay described herein provides a convenient method for quantitative measurement of phospholipase C activities in a high throughput fashion.
Ninety-six well Phospholipid FlashPlates were coated with 0.2 mL of 50 mM Tris/HCl (pH 7.4), 0.01% Ac-BSA and 50,000 cpm of ^[3H]PIP2 (phosphatidylinositol-4,5-bisphosphate) at 4° C. for 72 h. The wells were aspirated and washed twice with PBS. The reactions were conducted directly in the wells in PLC reaction buffer containing 50 mM Tris/HCl (pH 7.2), 2.75 mM EDTA (pH 7.3), 80 mM KCl, 10 mM LiCl, 0.04% DOC and 2 mM CaCl2 in the absence or presence of the purified recombinant human PLC-β2 (prepared as described hereafter) or cytosolic human PLC-β2 from […]. Reduction of radioactivity was monitored by a Packard TopCount instrument (Packard Instrument Company, Conn., USA).
Suspension cultures of Sf9 cells were maintained in a spinner flask at 27° C. and stirred at 90 rpm. The cells were grown in Grace's media supplemented with 10% (v/v) fetal bovine serum, 3.3 g/l yeastolate, 3.3 g/l lactalbumin hydrosylate, glutamine (6.4 mM final), […] gentamicin, and 50 µg/ml kanamycin. Suspension of Sf9 cells (1.0×10^6 cells/ml) were infected with 5 pfu/cell of recombinant baculovirus encoding PLC-β2 and incubated at 27° C. for 72 h. The cells were collected by centrifugation (500×g, 7 min, 4° C.) and disrupted by hypotonic lysis buffer containing 20 mM Tris/HCl, pH 7.4, 5 mM MgCl2, 2 mM EGTA, 200 μM PMSF, 200 μM benzamidine and 1 μM pepstatin A. The lysate was sonicated on ice and the nuclei and unbroken cells removed by centrifugation (500×g, 5 min, 4° C.). The supernatant was recovered and clarified by centrifugation (34,000 rpm, 60 min, 4° C.). The supernatant was used as a crude cytosolic fraction (Paterson, A., Boyer, J. L., Watts, V. J., Morris, A. J., Price, E. M., Harden, T. K. (1995) Concentration of enzyme-dependent activation of PLC β1 and PLC β2 by Gα11 and βγ subunits. Cellular Signalling 7, 709-720).
Crude cytosol prepared from Sf9 cells expressing PLC-β2 was purified initially by chromatography on a 10 ml column of Q-Sepharose FF, equilibrated in buffer A (25 mM HEPES, pH 7.2,2 mM DTT, 2mM EDTA, 2 mM EGTA, 200 μM PMSF, 200 μM benzamidine, 1 μM pepstatin A containing 10 mM NaCl). […]

T1 sequence (Q00722 whole entry): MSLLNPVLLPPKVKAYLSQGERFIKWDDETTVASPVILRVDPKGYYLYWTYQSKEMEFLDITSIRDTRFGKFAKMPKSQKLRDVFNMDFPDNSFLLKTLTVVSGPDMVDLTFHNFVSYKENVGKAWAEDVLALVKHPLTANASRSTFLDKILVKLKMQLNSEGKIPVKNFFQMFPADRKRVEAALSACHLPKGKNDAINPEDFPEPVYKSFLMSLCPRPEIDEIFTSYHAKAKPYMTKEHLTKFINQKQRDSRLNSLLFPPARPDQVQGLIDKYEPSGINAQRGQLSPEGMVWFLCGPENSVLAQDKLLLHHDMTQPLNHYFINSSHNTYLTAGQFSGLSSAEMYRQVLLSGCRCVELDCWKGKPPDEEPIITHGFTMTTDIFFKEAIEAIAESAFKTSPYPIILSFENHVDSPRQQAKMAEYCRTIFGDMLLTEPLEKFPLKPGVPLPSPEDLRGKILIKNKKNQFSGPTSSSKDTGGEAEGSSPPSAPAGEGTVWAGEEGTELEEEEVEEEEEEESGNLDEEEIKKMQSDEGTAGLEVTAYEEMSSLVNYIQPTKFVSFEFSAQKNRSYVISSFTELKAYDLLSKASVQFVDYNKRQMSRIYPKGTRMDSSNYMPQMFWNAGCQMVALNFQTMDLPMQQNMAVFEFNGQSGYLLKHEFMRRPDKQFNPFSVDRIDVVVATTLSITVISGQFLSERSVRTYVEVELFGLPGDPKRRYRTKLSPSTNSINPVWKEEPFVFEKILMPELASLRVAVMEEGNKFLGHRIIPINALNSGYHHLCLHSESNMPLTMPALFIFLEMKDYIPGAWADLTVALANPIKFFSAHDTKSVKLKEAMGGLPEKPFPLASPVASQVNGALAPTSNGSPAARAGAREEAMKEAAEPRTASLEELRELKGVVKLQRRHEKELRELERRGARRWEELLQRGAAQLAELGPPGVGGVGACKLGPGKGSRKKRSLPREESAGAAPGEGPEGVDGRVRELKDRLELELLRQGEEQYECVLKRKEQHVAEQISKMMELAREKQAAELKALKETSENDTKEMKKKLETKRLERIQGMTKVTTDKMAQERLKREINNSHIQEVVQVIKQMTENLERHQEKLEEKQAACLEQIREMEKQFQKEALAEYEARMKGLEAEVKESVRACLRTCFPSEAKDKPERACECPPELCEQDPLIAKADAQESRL

pIC50	SMILES	inhibition at 10 µM
5.15	NC(=O)c1ccc(N2CCC(c3ccccc3)CC2)c(NC(=O)Nc2ccccc2)c1 [Cpd 2, 3-[[(phenylamino)carbonyl]amino]-4-(4-phenyl-1-piperidinyl)-benzamide]	–
5.47	NC(=O)c1ccc(N2CCC(Cc3ccccc3)CC2)c(NC(=O)Nc2ccccc2)c1 [Cpd 1, 3-[[(phenylamino)carbonyl]amino]-4-[4-(phenylmethyl)-1-piperidinyl]-benzamide]	–

Further lines, the compound ahead of its results:

SMILES	pIC50	inhibition at 10 µM
NC(=O)c1ccc(N2CCC(C(c3ccccc3)c3ccccc3)CC2)c(NC(=O)Nc2ccccc2)c1 [Cpd 6, 4-[4-(diphenylmethyl)-1-piperidinyl]-3-[[(phenylamino)carbonyl]amino]-benzamide]	–	60.7%
NC(=O)c1ccc(N2CCC(=C(c3ccccc3)c3ccccc3)CC2)c(NC(=O)Nc2ccccc2)c1 [Cpd 7, 4-[4-(diphenylmethylene)-1-piperidinyl]-3-[[(phenylamino)carbonyl]amino]-benzamide]	–	49.8%
NC(=O)c1ccc(N2CCC(c3ccccc3)CC2)c(NC(=O)Nc2ccc3c(c2)OCO3)c1 [Cpd 3, 3-[[(1,3-benzodioxol-5-ylamino)carbonyl]amino]-4-(4-phenyl-1-piperidinyl)-benzamide]	4.96	–
